The values below come from patent publication EP1053750A1, “Use of proteasome-inhibitor for the induction of programmed cell death (apoptosis)” (Max-Planck-Gesellschaft zur Förderung der Wissenschaften …, priority 1999, dated 2000).

The test system of experiment [1] is HUE cells. The experiment in a line: DNA fragmentation assay. As to conditions: 250 µM caspase inhibitor 1 h before 10 µM PSI, 18 h. In kind it is cell-based, human. The method, then: • a. Analysis of PSI-induced DNA fragmentation by agarose gel electrophoresis. […] Neither caspase inhibitor (Ac-YVAD-CHO 250 µM, lane 4; Ac-DEVD-CHO 250 µM, lane 5) nor DMSO (lane 6) induced the characteristic pattern of DNA fragmentation. M1 and M2: DNA size markers (kb). • b. Immunoblot analysis of HUE cell lysates after incubation with PSI. […] Equal loading was controlled by using an antibody directed against GAPDH enzyme.
HUE cells which had been plated at 20000 cells/cm^2 24 hours before the assay, were treated with 250 µM of the caspase inhibitors Ac-YVAD-CHO or Ac-DEVO-CHO (Peptide Institute, Osaka, Japan) or the equivalent volume of dimethylsulfoxide (DMSO) for 1 h prior to additon of the proteasomal inhibitors. Incubation of the cells was continued for a further 18 h and the extent of DNA fragmentation was analyzed as previously described with some minor modifications (Hockenberry et al., Nature 348 (1990), 334 - 336). Briefly, both the floating cells and the adherent cells which were detached by trypsinization, were lysed in a solution containing 0.5% Triton X100, 10 mM EDTA and 10 mM Tris-HCL pH 7.5 for 30 min on ice. To separate the intact chromatin from the oligonucleosomal fragments, the lysate was centrifuged at 13000 g for 10 min at 4°C and the resulting supernatant was sequentially extracted with phenol followed by phenol/chloroform/iso-amylalcohol (25:24:1; v/v/v). Low molecular weight DNA was precipitated by the addition of 0.5 vol 7 M ammonium acetate and 2.5 vol ice-cold ethanol. The precipitate was washed in 75% ethanol, dissolved in TE-buffer, containing RNase A (20 µg/ml; Boehringer Mannheim), incubated for 30 min at 37°C and subjected to electrophoresis on 1.5% agarose gels.

Experiment [2] addresses T1, chymotrypic activity of the proteasome (Bos taurus, UniProt Q32KL2).
T1 construct: endogenous in cells; host or cells: primary bovine aortic endothelial cells (BAE), total lysate after 15-16 h treatment of the cells
T1 sequence (Q32KL2 60-263): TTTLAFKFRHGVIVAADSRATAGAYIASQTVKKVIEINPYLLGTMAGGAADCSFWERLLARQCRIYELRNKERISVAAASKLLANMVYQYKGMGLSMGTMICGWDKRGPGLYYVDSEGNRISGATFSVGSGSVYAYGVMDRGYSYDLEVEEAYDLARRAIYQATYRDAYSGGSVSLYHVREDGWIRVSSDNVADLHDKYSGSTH
Put plainly: Proteasomal activity in lysates of treated BAE cells, substrate Suc-LLVY-AMC. In kind it is cell-based, bovine. Conditions: total cell lysates after 15 h incubation of BAECs with 50 µM inhibitor. Here is the method: (§1) Lysates prepared from BAE cells incubated for 15 hours with 50 µM of the indicated inhibitors were assayed for their ability to suppress proteasomal function by using Suc-LLVY-AMC as substrate for the chymotryptic activity (a) and Z-LLE-AMC as substrate for the post acidic residue cleaving activity (b). Activities are expressed as the relative fluorescence measured after 45 min of incubation with the substrates and reflect the mean of two independent experiments each performed in duplicate.
(§2) DMSO at a final concentration of 0.1% served as a vehicle-only control. Floating and adherent cells were harvested, lysed by sonication in ice-cold solution of 20 mM Tris-HCI pH 7.5, containing 20% glycerol, centrifuged in a benchtop centrifuge (10 min, 2000 g). […] A total of 15 µg of protein in a volume of 200 µl lysis buffer supplemented with 5 mM CaCl2 was assayed for chymotryptic and peptidyl-glutamyl-hydrolyzing activity in the presence of 10 µM Suc-Leu-Leu-Val-Tyr-AMC (Bachem, Heidelberg, Germany) and 10 µM Z-Leu-Leu-Glu-AMC (Peptide Institute, Osaka, Japan) respectively.

The subject of experiment [3] is subconfluent primary BAE cells. The experiment in a line: Apoptotic morphology (phase contrast, Hoechst 33342), BAE cells. In kind it is cell-based, bovine. Conditions: for morphological changes associated with programmed cell death: subconfluent BAE cells, 50 µM for 15 - 24 h, or 10 µM after 48 hours.
In the next experiment the target is calpain. As to conditions: cited from earlier work.
The target of the next experiment is cathepsin B (Homo sapiens, UniProt P07858). As to conditions: cited from earlier work.
In experiment [4] the target is T2, peptidyl-glutamyl hydrolyzing activity of the proteasome (Bos taurus, UniProt Q3MHN0).
T2 construct: endogenous in cells; host or cells: primary bovine aortic endothelial cells (BAE), total lysate after 15-16 h treatment of the cells
T2 sequence (Q3MHN0 1-239): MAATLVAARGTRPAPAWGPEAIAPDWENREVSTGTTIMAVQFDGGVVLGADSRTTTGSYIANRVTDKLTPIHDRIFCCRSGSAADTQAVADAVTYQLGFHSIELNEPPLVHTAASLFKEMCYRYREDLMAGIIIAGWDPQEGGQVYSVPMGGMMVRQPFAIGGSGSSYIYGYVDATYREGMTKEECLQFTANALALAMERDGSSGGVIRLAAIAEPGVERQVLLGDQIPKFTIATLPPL
The experiment in a line: Proteasomal activity in lysates of treated BAE cells, substrate Z-LLE-AMC. In kind it is cell-based, bovine. As to conditions: total cell lysates after 15 h incubation of BAECs with 50 µM inhibitor. The method, then: as §1, §2

The subject of another experiment is MDCK epithelial cells. The experiment in a line: Viability assay (MIT assay), MDCK cells. The experiment is classed as cell-based, canine. Conditions: for EC50: Canis lupus familiaris, 48 h, 48 h incubation. Here is the method:
The indicated values are expressed as the percentage of absorbance at 570 nm relative to the absorbance obtained by DMSO treated (control) cells.
Madin Darby canine kidney epithelial cells (MDCK; ATCC CLL-34) were grown in Dulbecco's Modified Eagle's Medium (DMEM) containing 10% FCS, penicillin and streptomycin.
Briefly, the cells were plated either at 3000 cells/well (low density) or 30000 cells/well (high density) onto 96 well plates and grown over night. […] The formazan cystals generated were subsequently dissolved in DMSO and absorption measured at 570 - 650 nm.

In another experiment the test system is BAE cells. Put plainly: Viability assay (MIT assay), BAE cells. Conditions: for EC50: Bos taurus. The experiment is classed as cell-based, bovine.
For experiment [5], the system named is HUE cells. Put plainly: Viability assay (MIT assay), HUE cells. The experiment is classed as cell-based, human. As to conditions: for EC50: Homo sapiens, 48 h, 48 h incubation.
In experiment [6] the test system is chorioallantoic membrane (CAM). Put plainly: Chorioallantoic membrane (CAM) assay. The experiment is classed as in vivo, chick embryo. The method, then: All experiments with chick embryos were performed in ovo. After aspiration of 2 ml of eggwhite from the pointed side of the egg, a window was cut into the eggshell on embryonic day 3 or 4 (E3, E4). The eggs were resealed with tape and further incubated until E9. […] Approximately 1 cm^2-pieces of the CAM were then cut out, washed in PBS and fixed in Carnoy's solution. After dehydration and embedding in paraffin, 8 µm sections were cut and stained with an anti-BrdU mouse monoclonal antibody (Boehringer Mannheim, Germany) according to the manufacturer's instructions. Counterstaining of the sections was performed with Gill's hematoxylin (Serva, Heidelberg, Germany). Sections were mounted using Aquamount (Merck, Darmstadt, Germany) and photos were taken with a Zeiss Axiophot microscope. […] Control pellets were prepared with an equal amount of Leupeptin or with DMSO as vehicle, respectively. To aid in the visualization of the vascular system, embryos and CAMs were then injected using pulled glass capillaries with 10% Luconyl Blue (BASF, Ludwigshafen, Germany) in PBS, and photographs were taken using a stereomicroscope with camera adapter.
In eight eggs the windows of the egg shells were enlarged under an operation microscope. After a peripheral incision in the CAM was made, the main artery was incised with a pair of ocular scissors, and a glass capillary (World Precision Instruments, Inc. Germany) pulled to the adequate diameter, was inserted and sealed with a drop of cyanoacrylate (Loctite®). Efflux was enabled by making another incision into a main draining vessel. The vascular system was flushed with up to 5 ml of prewarmed (37 -39°C) physiological saline (0.9% NaCI) under mechanically controlled pressure. […] After complete polymerization of the casting solution, the membranes were dissected and macerated in a solution of 5% potassium hydroxide (Fluka, Neu-Ulm, Germany) at 40°C for 1 - 2 days. The resulting corrosion casts of all specimens were freeze dried, mounted and sputter coated. Examination of the microvascular corrosion casts were carried out with a Stereoscan Mk-250 scanning electron microscope (Cambridge, England). Alternatively, in situ fixed CAM segments were cut out, processed for semi-thin sectioning and stained with methylene blue and Azur II. Selected specimens were trimmed for ultrathin sectioning, and counterstained with uranyl acetate and lead citrate.

Setting [7] is: sub (low density, subconfluent).
[8] abbreviates: EC50 confluent versus subconfluent, 2880 min.

Square brackets hold non-standard residues; d marks the D form. Peptide text beside a SMILES is read from it. * marks the point of attachment. Nva = CCC[C@H](N)C(=O)O; Cbz = O=C(OCc1ccccc1)*

In the case of `CC(=O)N[C@@H](CC(=O)O)C(=O)N[C@@H](CCC(=O)O)C(=O)N[C@H](C(=O)N[C@H](C=O)CC(=O)O)C(C)C` [Ac-DEVD-CHO], in the experiment on HUE cells [1], the “blocking of PSI-induced morphological changes and DNA fragmentation” value is listed as “blocked”.
`CC(=O)N[C@@H](Cc1ccc(O)cc1)C(=O)N[C@H](C(=O)N[C@@H](C)C(=O)N[C@H](C=O)CC(=O)O)C(C)C` [Ac-YVAD-CHO]: in the experiment on HUE cells [1], the “blocking of PSI-induced morphological changes and DNA fragmentation” value is recorded as “unable to inhibit the action of PSI”.
`CC(C)C[C@H](NC(=O)[C@H]1O[C@@H]1C(=O)O)C(=O)NCCCCN=C(N)N` [E64]: in [2], the “cleavage of Suc-Leu-Leu-Val-Tyr-AMC” value is on record as “not”.
On to `CC(C)C[C@@H](C=O)NC(=O)[C@H](CC(C)C)NC(=O)[C@H](CC(C)C)NC(=O)OCc1ccccc1` [LLL] (Cbz-Leu-Leu-Leu-aldehyde), for which the “morphological changes associated with programmed cell death” value in experiment [3] is given as “had the same effect”.
As to `CSCC[C@@H](C=O)NC(=O)[C@H](CC(C)C)NC(=O)[C@H](CC(C)C)NC(C)=O` [LLnM] (Ac-Leu-Leu-Met-aldehyde), the Ki is 9 nM at calpain and 12 nM at cathepsin B. Besides, the “changes in cellular morphology or viability” value in [3] (cultured BAE cells) was “did not induce any changes”. Moreover, the “cleavage of Suc-Leu-Leu-Val-Tyr-AMC” value in experiment [2] is on record as “not”.
With `CCC[C@@H](C=O)NC(=O)[C@H](CC(C)C)NC(=O)[C@H](CC(C)C)NC(=O)OCc1ccccc1` [LLnV] (Cbz-Leu-Leu-[Nva]-aldehyde), the “total cellular peptidyl-glutamyl hydrolyzing activity (Z-Leu-Leu-Glu-AMC)” value in experiment [4] is on record as “similarly reduced”. The EC50 in the experiment on MDCK epithelial cells (con (confluent)) came to 2950 nM; in the experiment with MDCK epithelial cells (setting [7]), 196 nM; with BAE cells (96 h, BAE cells seeded at high density, grown to confluency for 4 days), 2720 nM; in the experiment on BAE cells (BAE, con (grown to confluency for 4 days), 48 h incubation), 2720 nM; with BAE cells (BAE, sub (low density, subconfluent), 48 h incubation, viability reduced to 50% of DMSO control) it was 402 nM; with HUE cells [5] (con (grown to confluency)), 2500 nM. This compound also registered an EC50 in the experiment on HUE cells [5] (setting [7]) of 310 nM. The x difference with MDCK epithelial cells (setting [8]) was 15.1 fold; in the experiment with BAE cells (BAE, EC50 confluent versus subconfluent, 2880 min), 6.8 fold; in the experiment on HUE cells [5] (setting [8]), 8.1 fold. Further, the “morphological changes associated with programmed cell death” value in experiment [3] was “had the same effect”. In experiment [2], the “cleavage of Suc-Leu-Leu-Val-Tyr-AMC” value is reported as “clearly reduced”.
Turning to `CC(=O)N[C@@H](CC(C)C)C(=O)N[C@@H](CC(C)C)C(=O)N[C@H](C=O)CCCNC(=N)N` [Leupeptin], the “%CAMs with non-perfused areas” value in [6] (3.1 µg/disc, methylcellulose disc on CAM for 48 h, Luconyl Blue injection, positive/total CAMs in parenthesis) is reported as 0 (0/26) %. Besides, the “vascular patterning or perfusion efficacy in the CAM” value in experiment [6] (same amount as PSI (3.1 µg/disc)) is listed as “did not elicit any significant changes”. In addition, the “cleavage of Suc-Leu-Leu-Val-Tyr-AMC” value in experiment [2] is “not”.
